# Measurements: patent US6936628B2, “Oral administration of epothilones” (Bristol-Myers Squibb Company, priority 2002, dated 2005)
# Where “and” joins values, the source holds several entries; their conditions need not be identical. Equal values may be shown once.
# Experiments:
# [1] = system: Pat-7 human ovarian carcinoma; settings: mouse, in vivo, iv
# [2] = system: Pat-26 human pancreatic carcinoma; settings: mouse, in vivo, iv
# [3] = system: human ovarian carcinoma xenograft A2780; test: Antitumor activity by parenteral administration to rats, A2780 xenograft; assay type: in vivo, nude rats
# Protocol: The required number of animals needed to detect a meaningful response were pooled at the start of the experiment and each was given a subcutaneous implant of a tumor fragment (≈50 mg) with a 13-gauge trocar. For treatment of early-stage tumors, the animals were again pooled before distribution to the various treatment and control groups. For treatment of animals with advanced-stage disease, tumors were allowed to grow to the pre-determined size window (tumors outside the range were excluded) and animals were evenly distributed to various treatment and control groups. Treatment of each animal was based on individual body weight. Treated animals were checked daily for treatment related toxicity/mortality. Each group of animals was weighed before the initiation of treatment (Wt1) and then again following the last treatment dose (Wt2). The difference in body weight (Wt2−Wt1) provides a measure of treatment-related toxicity.
# Tumor response was determined by measurement of tumors with a caliper twice a week, until the tumors reach a predetermined “target” size of 1 gm. Tumor weights (mg) were estimated from the formula: Tumor weight=(length×width^2)÷2
# Antitumor activity was evaluated at the maximum tolerated dose (MTD) which is defined as the dose level immediately […] which excessive toxicity (i.e. more than one death) occurred. The MTD was frequently equivalent to OD. When death occurred, the day of death was recorded. Treated mice dying prior to having their tumors reach target size were considered to have died from drug toxicity. No control mice died bearing tumors less than target size. Treatment groups with more than one death caused by drug toxicity were considered to have had excessively toxic treatments and their data were not included in the evaluation of a compound's antitumor efficacy.
# Tumor response end-point was expressed in terms of tumor growth delay (T−C value), defined as the difference in time (days) required for the treated tumors (T) to reach a predetermined target size compared to those of the control group (C).
# To estimate tumor cell kill, the tumor volume doubling time was first calculated with the formula: TVDT=Median time (days) for control tumors to reach target size−Median time (days) for control tumors to reach half the target size and Log cell kill=T−C÷(3.32×TVDT)
# Compound A was evaluated versus the human ovarian carcinoma xenograft A2780 grown in nude rats. […] In comparison, Compound B produced 3.3 LCK at its MTD (2.4 mg/kg/inj, IV, every 8 days×2).
# [4] = system: tubulin isolated from calf brain; assay type: biochemical
# [5] = system: Pat-21 paclitaxel resistant breast cancer model; design: species or system nude mice; settings: mouse, in vivo, iv
# HCT116/VM46 cells = test: In vitro cytotoxicity assay (MTS), HCT116/VM46; assay type: cell-based, human; settings: concentration for 50% growth inhibition, HCT116/VM46 versus sensitive HCT116
# [6] = system: HCT116/VM46 human colon carcinoma; design: species or system nude mice; settings: mouse, in vivo, iv
# [7] = system: A2780Tax human ovarian carcinoma; design: species or system nude mice; settings: mouse, in vivo, iv
# [8] = cited from earlier work
# in vitro = settings: human, Caco-2
compound,measurement,setting,value
"C/C(=C\c1csc(C)n1)[C@@H]1C[C@@H]2O[C@]2(C)CCC[C@H](C)[C@H](O)[C@@H](C)C(=O)C(C)(C)[C@@H](O)CC(=O)N1 (relative stereo) [Compound B, [1S-[1R*,3R*(E),7R*,10S*,11R*,16S*]]-7,11-dihydroxy 8,8,10,12,16-pentamethyl-3-[1-methyl-2-(2-methyl-4-thiazolyl)ethenyl-17-oxa-4-azabicyclo[14.1.0]heptadecane-5,9-dione]",LCK,[1],1.9
same,LCK (gross log cell kill),[2],1.2 and 1.2^3
same,LCK,"[3]; A2780 in nude rats, IV, every 8 days×2, at MTD",3.3
same,MTD,"[3]; nude rats bearing A2780, IV, every 8 days×2",2.4 mg/kg/inj
same,"Polymerization Potency, EC0.01",[4],3500 nM
same,Ratio of Polymerization Potency of Analog/Paclitaxel,[4],0.4
"C/C(=C\c1csc(C)n1)[C@@H]1C[C@@H]2O[C@@H]2CCC[C@H](C)[C@H](O)[C@@H](C)C(=O)C(C)(C)[C@@H](O)CC(=O)O1 [BMS-212188 (Epothilone A), Epothilone A]","Polymerization Potency, EC0.01",[4],2000 nM
same,Ratio of Polymerization Potency of Analog/Paclitaxel,[4],0.4
CC(=O)O[C@H]1C(=O)[C@@]2(C)[C@H]([C@H](OC(=O)c3ccccc3)[C@]3(O)C[C@H](OC(=O)[C@H](O)[C@@H](NC(=O)c4ccccc4)c4ccccc4)C(C)=C1C3(C)C)[C@]1(OC(C)=O)CO[C@@H]1C[C@@H]2O [Paclitaxel],LCK (gross log cell kill),[1],0.8^3
same,LCK (gross log cell kill),[2],0.4
same,LCK (gross log cell kill),[5],0.3^3
same,"R/S, or resistance ratio",HCT116/VM46 cells,155 fold
same,LCK (gross log cell kill),[6],0.55^3
same,LCK (gross log cell kill),[7],0.8^3
CCCC(=O)Nc1ccc(OCC(O)CNC(C)C)c(C(C)=O)c1 (stereo not drawn) [acebutalol],extent of absorption in humans (% absorbed),[8],40%
CN/C(=N/CCSCc1nc[nH]c1C)NC#N [cimetidine],extent of absorption in humans (% absorbed),[8],95%
same,Papp,in vitro,4.9 ×10⁻⁶ cm/s
OC[C@@H](O)[C@@H](O)[C@H](O)[C@H](O)CO [mannitol],extent of absorption in humans (% absorbed),[8],15%
same,Papp,in vitro,3.2 ×10⁻⁶ cm/s
Epothilone B [BMS-205535 (Epothilone B)],"Polymerization Potency, EC0.01",[4],1800 nM
same,Ratio of Polymerization Potency of Analog/Paclitaxel,[4],0.3
